Where two headings read alike, the source gives them in different places.
Legend:
rgRSV224 virus = test: Antiviral activity: rgRSV224 (GFP) replication in HeLa cells; format: cell-based, respiratory syncytial virus (RSV)
Description: (§1) Black 384-well clear-bottom microtiter plates (Corning, Amsterdam, The Netherlands) were filled via acoustic drop ejection using the echo liquid handler (Labcyte, Sunnyvale, California). 200 nL of compound stock solutions (100% DMSO) were transferred to the assay plates. 9 serial 4-fold dilutions of compound were made, creating per quadrant the same compound concentration. The assay was initiated by adding 10 µL of culture medium to each well (RPMI medium without phenol red, 10% FBS-heat inactivated, 0.04% gentamycin (50 mg/mL). All addition steps are done by using a multidrop dispenser (Thermo Scientific, Erembodegem, Belgium). Next, rgRSV224 virus (MOI = 1) diluted in culture medium was added to the plates. rgRSV224 virus is an engineered virus that includes an additional GFP gene (Hallak LK, Spillmann D, Collins PL, Peeples ME. Glycosaminoglycan sulfation requirements for respiratory syncytial virus infection; Journal of virology (2000), 74(22), 10508-13) and was in-licensed from the NIH (Bethesda, MD, USA). Finally, 20 µL of a HeLa cell suspension (3,000 cells/well) were plated. Medium, virus- and mock-infected controls were included in each test. The wells contain […] DMSO per volume. Cells were incubated at 37° C. in a 5% CO2 atmosphere. Three days post-virus exposure, viral replication was quantified by measuring GFP expression in the cells by an in house developed MSM laser microscope (Tibotec, Beerse, Belgium). The EC50 was defined as the 50% inhibitory concentration for GFP expression. In parallel, compounds were incubated for three days in a set of white 384-well microtiter plates (Corning) and the cytotoxicity of compounds in HeLa cells was determined by measuring the ATP content of the cells using the ATPlite kit (Perkin Elmer, Zaventem, Belgium) according to the manufacturer’s instructions. The CC50 was defined as the 50% concentration for cytotoxicity.

[1] = Cytotoxicity in HeLa cells (ATP content, ATPlite kit); format: cell-based; details: human
Description: as §1

[2] = human respiratory syncytial virus, HeLa, 72 h, read-out: RSV HELA EC50, HeLa cells, rgRSV224 MOI = 1, GFP expression three days post-virus exposure, averaged data of several repeat experiments
[3] = human respiratory syncytial virus, HeLa, comparison table 5.3, antiviral RSV assay of Example 5.1

Row | Compound | EC50 (rgRSV224 virus; [2]) [µM] | CC50 at 3 days ([1]; TOX HELA CC50) [µM] | EC50 (rgRSV224 virus; [3]) [µM] | EC50 (rgRSV224 virus; read-out: RSV HELA EC50, HeLa cells, rgRSV224 MOI = 1, GFP expression three days post-virus exposure, averaged data of several repeat experiments) [µM] | CC50 at 3 days ([1]; CC50) [µM]
1 | COc1cc(C(=O)NC[C@@](C)(O)c2cc(C(C)(C)O)c(Cl)c(-c3ccc(F)cc3)n2)cc2cc(C)nnc12 [compound 230] | 0.12 | 57 |  |  | 
2 | Cc1cc2cc(C(=O)NCC(O)(c3cc(C(C)(C)O)c(F)c(-c4ccc(F)cc4)n3)C3CC3)cc(OC(F)F)c2nn1 (single isomer, unassigned; (-)) [compound 260, (-)-N-{2-Cyclopropyl-2-[5-Fluoro-6-(4-Fluorophenyl)-4-(2-Hydroxypropan-2-yl)Pyridin-2-yl]-2-Hydroxyethyl}-8-(Difluoromethoxy)-3-Methylcinnoline-6-Carboxamide] | 0.0016 | 19 |  |  | 
3 | COc1cc(C(=O)NC[C@](O)(c2cc(C(C)(C)O)c(F)c(-c3ccc(F)cc3)n2)C(F)(F)F)cc2cc(C)nnc12 [compound 234] |  | 23 | 0.0006 | 0.00082 | 23
4 | [2H]C([2H])([2H])Oc1cc(C(=O)NC[C@](O)(c2cc(C(C)(C)O)c(F)c(-c3ccc(F)cc3)n2)C2CC2)cc2cc(C)nnc12 [compound 290] | 0.00021 | 28 |  |  | 
5 | COc1cc(C(=O)NC[C@](O)(c2cc(C(C)(C)O)c(Cl)c(-c3ccc(F)cc3)n2)C(F)(F)F)cc2cc(C(F)F)nnc12 [compound 267, (-)-N-{2-[5-Chloro-6-(4-Fluorophenyl)-4-(2-Hydroxypropan-2-yl)Pyridin-2-yl]-3,3,3-Trifluoro-2-Hydroxypropyl}-3-(Difluoromethyl)-8-Methoxycinnoline-6-Carboxamide] | 0.003 | 14 |  |  | 
6 | Cc1cnc2c(OC3CC3)cc(C(=O)NC[C@](O)(c3cc(C(C)(C)O)c(Cl)c(-c4ccc(F)cc4)n3)C(F)(F)F)cc2c1 [compound 219, (-)-N-{2-[5-Chloro-6-(4-Fluorophenyl)-4-(2-Hydroxypropan-2-yl)Pyridin-2-yl]-3,3,3-Trifluoro-2-Hydroxypropyl}-8-(Cyclopropyloxy)-3-Methylquinoline-6-Carboxamide] | 0.005 | 27 |  |  | 
7 | COc1cc(C(=O)NC[C@](O)(c2nc(-c3ccc(F)cc3)c(Cl)c(C(C)(C)O)c2F)C(F)(F)F)cc2cc(C)c(F)nc12 [compound 212, (-)-N-{2-[5-Chloro-3-Fluoro-6-(4-Fluorophenyl)-4-(2-Hydroxypropan-2-yl)Pyridin-2-yl]-3,3,3-Trifluoro-2-Hydroxypropyl}-2-Fluoro-8-Methoxy-3-Methylquinoline-6-Carboxamide] | 0.0071 | 58 |  |  | 
8 | COc1cc(C(=O)NC[C@](O)(c2cc(C(C)(C)O)c(F)c(-c3ccc(F)c(F)c3)n2)C2CC2)cc2cc(C)c(F)nc12 [compound 218, (-)-N-{2-Cyclopropyl-2-[6-(3,4-Difluorophenyl)-5-Fluoro-4-(2-Hydroxypropan-2-yl)Pyridin-2-yl]-2-Hydroxyethyl}-2-Fluoro-8-Methoxy-3-Methylquinoline-6-Carboxamide] | 0.0012 | 16 |  |  | 
9 | Cc1cnc2c(OC3CC3)cc(C(=O)NC[C@](O)(c3cc(C(C)(C)O)c(F)c(-c4ccc(F)cc4)n3)C(F)(F)F)cc2c1 [compound 272, (-)8-(Cyclopropyloxy)-3-Methyl-N-{(2S)-3,3,3-Trifluoro-2-[5-Fluoro-6-(4-Fluorophenyl)-4-(2-Hydroxypropan-2-yl)Pyridin-2-yl]-2-Hydroxypropyl}Quinoline-6-Carboxamide] | 0.0037 | 17 | 0.004 |  | 17
10 | COc1cc(C(=O)NC[C@@](O)(c2cc(C(C)(C)O)cc(-c3ccc(F)cc3)n2)C2CC2)cc2cc(C)nnc12 [compound 305] | 0.642 | 41 |  |  | 
11 | Cc1cc2cc(C(=O)NC[C@](O)(c3cc(C(C)(C)O)cc(-c4ccc(F)cc4)n3)C(F)(F)F)cc(OC3CC3)c2nn1 [compound 291, (-)Cyclopropoxy-3-Methyl-N-(3,3,3-Trifluoro-2-(6-(4-Fluorophenyl)-4-(2-Hydroxypropan-2-yl)Pyridin-2-yl)-2-Hydroxypropyl)Cinnoline-6-Carboxamide] | 0.015 | 57 |  |  | 
12 | [2H]C([2H])(NC(=O)c1cc(OC)c2nnc(C)cc2c1)[C@](O)(c1cc(C(C)(C)O)c(F)c(-c2ccc(F)cc2)n1)C1CC1 [compound 316] | 0.00034 | 33 |  |  | 
13 | COc1cc(C(=O)NC[C@](O)(c2cc(C(C)(C)O)c(Cl)c(-c3ccc(F)cc3)n2)C(F)(F)F)cc2cc(C(F)(F)F)cnc12 [compound 328, (-)(Trifluoromethyl)-8-Methoxy-N-(3,3,3-Trifluoro-2-(5-Chloro-6-(4-Fluorophenyl)-4-(2-Hydroxypropan-2-yl)Pyridin-2-yl)-2-Hydroxypropyl)Quinoline-6-Carboxamide] | 0.04 | 14 |  |  | 
14 | Cc1cnc2c(OC3CC3)cc(C(=O)NC[C@](O)(c3cc(C(C)(C)O)c(F)c(-c4ccc(F)cc4)n3)C3CC3)cc2c1 [compound 223, (-)-N-{2-Cyclopropyl-2-[5-Fluoro-6-(4-Fluorophenyl)-4-(2-Hydroxypropan-2-yl)Pyridin-2-yl]-2-Hydroxyethyl}-8-(Cyclopropyloxy)-3-Methylquinoline-6-Carboxamide] | 0.00063 | 21 |  |  | 
15 | Cc1cc2cc(C(=O)NCC(O)(c3cc(C(C)(C)O)c(Cl)c(-c4ccc(F)cc4)n3)C(F)(F)F)cc(OC(F)(F)F)c2nn1 (single isomer, unassigned; (-)) [compound 261, (-)-N-{2-[5-Chloro-6-(4-Fluorophenyl)-4-(2-Hydroxypropan-2-yl)Pyridin-2-yl]-3,3,3-Trifluoro-2-Hydroxypropyl}-3-Methyl-8-(Trifluoromethoxy)Cinnoline-6-Carboxamide] | 0.013 | 13 |  |  | 
16 | Cc1cnc2c(OC3CC3)cc(C(=O)NC[C@](O)(c3cc(C(C)(C)O)c(F)c(-c4ccc(F)c(F)c4)n3)C3CC3)cc2c1 [compound 225, (-)-N-{2-Cyclopropyl-2-[6-(3,4-Difluorophenyl)-5-Fluoro-4-(2-Hydroxypropan-2-yl)Pyridin-2-yl]-2-Hydroxyethyl}-8-(Cyclopropyloxy)-3-Methylquinoline-6-Carboxamide] | 0.00059 | 15 |  |  | 
17 | COc1cc(C(=O)NC[C@](O)(c2cc(C(C)(C)O)c(Cl)c(-c3ccc(F)cc3)n2)C(F)(F)F)cc2cc(C)c(F)nc12 [compound 210, (-)-N-{2-[5-Chloro-6-(4-Fluorophenyl)-4-(2-Hydroxypropan-2-yl)Pyridin-2-yl]-3,3,3-Trifluoro-2-Hydroxypropyl}-2-Fluoro-8-Methoxy-3-Methylquinoline-6-Carboxamide] | 0.0029 | 23 |  |  | 
18 | COc1cc(C(=O)NC[C@@](O)(c2nc(-c3ccc(F)cc3)cc(C(C)(C)O)c2F)C(F)(F)F)cc2cc(C)nnc12 [compound 280, (+)Methoxy-3-Methyl-N-(3.3.3-Trifluoro-2-(3-Fluoro-6-(4-Fluorophenyl)-4-(2-Hydroxypropan-2-yl)Pyridm-2-yl)-2-Hydroxypropyl)Cinnoline-6-Carboxamide] | 0.449 | 9.4 |  |  | 
19 | COc1cc(C(=O)NC[C@](O)(c2cc(C(C)(C)O)c(F)c(-c3ccc(F)cc3)n2)C(F)(F)F)cc2cc(C3CC3)nnc12 [compound 286, (-)Cyclopropyl-8-Methoxy-N-(3,3,3-Trifluoro-2-(5-Fluoro-6-(4-Fluorophenyl)-4-(2-Hydroxypropan-2-yl)Pyridin-2-yl)-2-Hydroxypropyl)Cinnoline-6-Carboxamide] | 0.0026 | 8.9 |  |  | 
20 | Cc1cnc2c(OC3CC3)cc(C(=O)NC[C@](O)(c3cc(C(C)(C)O)c(F)c(-c4ccc(C(F)(F)F)cc4)n3)C3CC3)cc2c1 [compound 224] | 0.0017 | 15 |  |  | 
21 | COc1cc(C(=O)NC[C@](O)(c2cc(C(C)(C)O)c(F)c(-c3ccc(F)c(F)c3)n2)C2CC2)cc2cc(C)cnc12 [compound 209, (-)-N-{2-Cyclopropyl-2-[6-(3,4-Difluorophenyl)-5-Fluoro-4-(2-Hydroxypropan-2-yl)Pyridin-2-yl]-2-Hydroxyethyl}-8-Methoxy-3-Methylquinoline-6-Carboxamide] | 0.00041 | 25 |  |  | 
22 | COc1cc(C(=O)NC[C@](O)(c2cc(C(C)(C)O)c(F)c(-c3ccc(C(F)(F)F)cc3)n2)C2CC2)cc2cc(C)cnc12 [compound 207] | 0.00077 | 13 |  |  | 
23 | COc1cc(C(=O)NC[C@](O)(c2cc(C(C)(C)O)c(F)c(-c3ccc(F)cc3)n2)C2(C)CC2)cc2cc(C)nnc12 [compound 298] | 0.0026 | 52 |  |  | 
